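Compound exposure: 48 hours, 5 concentrations, 96-well plates. At the GI50, growth is halved. TGI: total growth inhibition.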
Key:
Assay in all cases: DTP human tumour cell line panel, 48 h
786-0 renal = tested on: 786-0 renal
CAKI-1 renal = tested on: CAKI-1 renal
EKVX NSCLC = tested on: EKVX NSCLC
HCT-15 colon = tested on: HCT-15 colon
HOP-62 NSCLC = tested on: HOP-62 NSCLC
HT29 colon = tested on: HT29 colon
NCI-H23 lung = tested on: NCI-H23 lung
SF-268 CNS = tested on: SF-268 CNS
SF-539 CNS = tested on: SF-539 CNS
SNB-75 CNS = tested on: SNB-75 CNS

Row | SMILES | GI50 (786-0 renal) [µM] | TGI (786-0 renal) [µM] | GI50 (CAKI-1 renal) [nM] | TGI (CAKI-1 renal) [µM] | GI50 (EKVX NSCLC) [µM] | TGI (EKVX NSCLC) [µM] | GI50 (HCT-15 colon) [nM] | TGI (HCT-15 colon) [µM] | GI50 (HOP-62 NSCLC) [nM] | TGI (HOP-62 NSCLC) [µM] | GI50 (HT29 colon) [µM] | TGI (HT29 colon) [µM] | GI50 (NCI-H23 lung) [µM] | TGI (NCI-H23 lung) [µM] | GI50 (SF-268 CNS) [µM] | TGI (SF-268 CNS) [µM] | GI50 (SF-539 CNS) [µM] | TGI (SF-539 CNS) [µM] | GI50 (SNB-75 CNS) [nM] | TGI (SNB-75 CNS) [µM]
1 | O=C1CCCCN1CCCCC#Cc1cccc(C#Cc2cccnc2)c1 | 13 | 27.8 | 35500 | > 100 | 23.5 | > 100 | 3960 | 17.7 | 15200 | 31.4 | 11.9 | 40 | 17.1 | 37.7 | 27 | > 100 | 31.8 | > 100 | 4050 | 20.4
2 | COc1cnc2c(c1)C(=O)c1c-2n(CCCN2CCN(C)CC2)c(=O)c2cc([N+](=O)[O-])ccc12 | 1.64 | 3.13 | 1340 | 2.8 | 0.514 | 2.05 | 249 | 1.26 | 81.3 | 0.392 | 0.167 | 0.352 | 0.362 | 2.6 | 0.206 | 1.64 | 0.191 | 0.386 | 1550 | 2.95
3 | Cc1ccccc1C(=O)N1CCN(C(=O)c2ccccc2C)CC1 | – | > 100 | – | > 100 | – | > 100 | – | > 100 | – | > 100 | – | > 100 | – | > 100 | – | > 100 | – | > 100 | – | > 100
4 | Cc1nc(C(N)=S)sc1C(=O)/C=C/c1c(O)ccc2ccccc12 | – | > 100 | – | > 100 | – | > 100 | – | > 100 | – | > 100 | – | > 100 | – | > 100 | – | > 100 | – | > 100 | – | > 100
5 | O=[N+]([O-])c1ccc(-c2ccc(-c3csc(Nc4ccccc4)n3)o2)cc1 | – | 30.9 | – | 39.5 | – | 33.5 | – | 42.5 | – | > 100 | – | 49.7 | – | 36.8 | – | 33.2 | – | 33.9 | – | > 56.8
6 | COC(=O)C1(C)Cc2cc(OC(C)=O)c(OC(C)=O)cc2N1 (stereo not given) | 24.1 | 62.2 | 2980 | 11.3 | 15.7 | 49 | 2640 | 12.9 | > 100000 | > 100 | 13 | 56.7 | 18.2 | 62.5 | 16.1 | 52.6 | 15.4 | 33.2 | 26300 | > 96.7
7 | COc1ccc(C(=O)c2ccc([As]=O)cc2)cc1 (stereo not given) | 0.0605 | 0.191 | 64 | 0.201 | 0.132 | 0.293 | 25.9 | 0.11 | 41.2 | 0.183 | 0.0489 | 0.236 | 0.108 | 0.322 | 0.0348 | 0.136 | 0.0432 | 0.163 | 126 | 0.417
